Measured values as given in patent US4946835A (priority 1988, dated 1990).
In brackets after ≈: the same amount, converted by molar mass. Read-outs that look alike come from different tables or passages of the source.

Legend:
Cryptococcus neoformans [1] = experiment: agar dilution assay (MIC) against expanded panel of 84 Cryptococcus neoformans isolates; type: cell-based; details: for MIC50: read-out: MIC50 (concentration at which 50% of the strains were inhibited); for MIC90: read-out: MIC90 (concentration at which 90% of the strains were inhibited)
Method: (§1) Such activity may be illustrated with test results against Cryptococcus neoformans employing yeast nitrogen base dextrose agar medium. In carrying out the assay, Compound I was solubilized in 10 percent dimethyl sulfoxide (DMSO) supplemented with one drop of Tween 20. Twofold dilutions were made with sterile distilled water/10 percent DMSO to obtain final drug concentrations in the agar dilution assay plates ranging from 128 to 0.06 μg/ml against two strains of Cryptococcus neoformans and subsequently against an expanded panel of 84 Cryptococcus strains at concentrations ranging from 0.008 to 16.0 μg/ml.
(§2) Nystatin or amphotericin B was used as a positive control. For the assay, nystatin was solubilized in 10 percent dimethylformamide and diluted in sterile distilled water; amphotericin B was solubilized by expressing water directly into a lyophilized cake and shaking until the colloidal solution was clear and then diluted in sterile distilled water. The final drug concentrations ranged from 0.063 to 128 μg/ml.

Staphylococcus species = experiment: activity against bacteria (statement), Staphylococcus; type: cell-based
Fusarium oxysporum = experiment: disk diffusion assay, Fusarium oxysporum; type: cell-based; parameters: key: fuzzy (F)--a zone that had a fuzzy edge and clear center surrounding the disc; hazy (H)--a zone that was hazy throughout; slightly hazy (S)--a zone in which low levels of growth were discernible throughout the inhibition zone; very hazy (V)--a zone in which the differences between the background lawn and inhibition zone were barely discernible; details: appearance of inhibition zone
Method: (§3) The broad antifungal activity of Compound I against fungi may be illustrated with representative assay results in a disk diffusion assay. Filamentous fungi used in the assays were prepared from stock cultures which had been maintained on potato dextrose agar (Difco) and transferred serially at two week intervals using standard microbiological techniques. Yeast used were prepared from stock cultures of strains of yeast which had been maintained frozen at -80° C. in 20 percent aqueous glycerol.
(§4) Seeded agar assay plates were prepared according to the type of assay strain. Inoculum for filamentous fungi was prepared by scraping the surface of stock plates with a moistened sterile dacron swab. The spores and mycelia were then suspended in 10 milliliters of sterile potato dextrose broth (PDB) and adjusted to 70% transmittance (T) at 660 nm. Inoculum for Cryptococcus was prepared from overnight broth cultures. Cultures were then diluted into PDB to a final concentration of either 40% or 70% T at 660 nm. Assay plates were prepared by diluting the inoculum into appropriate molten agar medium, and thereafter cooled to 45° C., to yield a final concentration of 4 percent.
(§5) Samples were applied to 6.2 mm filter paper disks (25 μl disk) and air dried at 24° C. […]
(§6) Following incubation, inhibition zones were measured and recorded. […]

Ceratocystis ulmi = experiment: disk diffusion assay, Ceratocystis ulmi; type: cell-based; parameters: key: fuzzy (F)--a zone that had a fuzzy edge and clear center surrounding the disc; hazy (H)--a zone that was hazy throughout; slightly hazy (S)--a zone in which low levels of growth were discernible throughout the inhibition zone; very hazy (V)--a zone in which the differences between the background lawn and inhibition zone were barely discernible; details: appearance of inhibition zone
Method: as §3, §4, §5, §6

solubility = details: organic solvents
Trichoderma lignorum = experiment: disk diffusion assay, Trichoderma lignorum; type: cell-based; parameters: key: fuzzy (F)--a zone that had a fuzzy edge and clear center surrounding the disc; hazy (H)--a zone that was hazy throughout; slightly hazy (S)--a zone in which low levels of growth were discernible throughout the inhibition zone; very hazy (V)--a zone in which the differences between the background lawn and inhibition zone were barely discernible; details: appearance of inhibition zone
Method: as §3, §4, §5, §6

Serratia species = experiment: activity against bacteria (statement), Serratia; type: cell-based
Scopulariopsis communes = experiment: disk diffusion assay, Scopulariopsis communes; type: cell-based; parameters: key: fuzzy (F)--a zone that had a fuzzy edge and clear center surrounding the disc; hazy (H)--a zone that was hazy throughout; slightly hazy (S)--a zone in which low levels of growth were discernible throughout the inhibition zone; very hazy (V)--a zone in which the differences between the background lawn and inhibition zone were barely discernible; details: appearance of inhibition zone
Method: as §3, §4, §5, §6

Aspergillus niger = experiment: disk diffusion assay, Aspergillus niger; type: cell-based; parameters: key: fuzzy (F)--a zone that had a fuzzy edge and clear center surrounding the disc; hazy (H)--a zone that was hazy throughout; slightly hazy (S)--a zone in which low levels of growth were discernible throughout the inhibition zone; very hazy (V)--a zone in which the differences between the background lawn and inhibition zone were barely discernible; details: appearance of inhibition zone
Method: as §3, §4, §5, §6

Aspergillus fumigatus = experiment: disk diffusion assay, Aspergillus fumigatus; type: cell-based; parameters: key: fuzzy (F)--a zone that had a fuzzy edge and clear center surrounding the disc; hazy (H)--a zone that was hazy throughout; slightly hazy (S)--a zone in which low levels of growth were discernible throughout the inhibition zone; very hazy (V)--a zone in which the differences between the background lawn and inhibition zone were barely discernible; details: appearance of inhibition zone
Method: as §3, §4, §5, §6

[2] = system: certain yeasts, particularly the Cryptococcus species; experiment: activity against certain yeasts (statement); type: cell-based
Cryptococcus albidus = experiment: disk diffusion assay, Cryptococcus albidus; type: cell-based; parameters: key: fuzzy (F)--a zone that had a fuzzy edge and clear center surrounding the disc; hazy (H)--a zone that was hazy throughout; slightly hazy (S)--a zone in which low levels of growth were discernible throughout the inhibition zone; very hazy (V)--a zone in which the differences between the background lawn and inhibition zone were barely discernible; details: appearance of inhibition zone
Method: as §3, §4, §5, §6

Cryptococcus laurentii = experiment: disk diffusion assay, Cryptococcus laurentii; type: cell-based; parameters: key: fuzzy (F)--a zone that had a fuzzy edge and clear center surrounding the disc; hazy (H)--a zone that was hazy throughout; slightly hazy (S)--a zone in which low levels of growth were discernible throughout the inhibition zone; very hazy (V)--a zone in which the differences between the background lawn and inhibition zone were barely discernible; details: appearance of inhibition zone
Method: as §3, §4, §5, §6

Cephalosporium sp. = experiment: disk diffusion assay, Cephalosporium sp.; type: cell-based; parameters: key: fuzzy (F)--a zone that had a fuzzy edge and clear center surrounding the disc; hazy (H)--a zone that was hazy throughout; slightly hazy (S)--a zone in which low levels of growth were discernible throughout the inhibition zone; very hazy (V)--a zone in which the differences between the background lawn and inhibition zone were barely discernible; details: appearance of inhibition zone
Method: as §3, §4, §5, §6

Alternaria solani = experiment: disk diffusion assay, Alternaria solani; type: cell-based; parameters: key: fuzzy (F)--a zone that had a fuzzy edge and clear center surrounding the disc; hazy (H)--a zone that was hazy throughout; slightly hazy (S)--a zone in which low levels of growth were discernible throughout the inhibition zone; very hazy (V)--a zone in which the differences between the background lawn and inhibition zone were barely discernible; details: appearance of inhibition zone
Method: as §3, §4, §5, §6

Aspergillus flavus = experiment: disk diffusion assay, Aspergillus flavus; type: cell-based; parameters: key: fuzzy (F)--a zone that had a fuzzy edge and clear center surrounding the disc; hazy (H)--a zone that was hazy throughout; slightly hazy (S)--a zone in which low levels of growth were discernible throughout the inhibition zone; very hazy (V)--a zone in which the differences between the background lawn and inhibition zone were barely discernible; details: appearance of inhibition zone
Method: as §3, §4, §5, §6

Cercospora beticola = experiment: disk diffusion assay, Cercospora beticola; type: cell-based; parameters: key: fuzzy (F)--a zone that had a fuzzy edge and clear center surrounding the disc; hazy (H)--a zone that was hazy throughout; slightly hazy (S)--a zone in which low levels of growth were discernible throughout the inhibition zone; very hazy (V)--a zone in which the differences between the background lawn and inhibition zone were barely discernible; details: appearance of inhibition zone
Method: as §3, §4, §5, §6

Cochliobolus miyabeanus = experiment: disk diffusion assay, Cochliobolus miyabeanus; type: cell-based; parameters: key: fuzzy (F)--a zone that had a fuzzy edge and clear center surrounding the disc; hazy (H)--a zone that was hazy throughout; slightly hazy (S)--a zone in which low levels of growth were discernible throughout the inhibition zone; very hazy (V)--a zone in which the differences between the background lawn and inhibition zone were barely discernible; details: appearance of inhibition zone
Method: as §3, §4, §5, §6

Trichoderma sp. = experiment: disk diffusion assay, Trichoderma sp.; type: cell-based; parameters: key: fuzzy (F)--a zone that had a fuzzy edge and clear center surrounding the disc; hazy (H)--a zone that was hazy throughout; slightly hazy (S)--a zone in which low levels of growth were discernible throughout the inhibition zone; very hazy (V)--a zone in which the differences between the background lawn and inhibition zone were barely discernible; details: appearance of inhibition zone
Method: as §3, §4, §5, §6

Penicillium sp. = experiment: disk diffusion assay, Penicillium sp.; type: cell-based; parameters: key: fuzzy (F)--a zone that had a fuzzy edge and clear center surrounding the disc; hazy (H)--a zone that was hazy throughout; slightly hazy (S)--a zone in which low levels of growth were discernible throughout the inhibition zone; very hazy (V)--a zone in which the differences between the background lawn and inhibition zone were barely discernible; details: appearance of inhibition zone
Method: as §3, §4, §5, §6

Botrytis allii = experiment: disk diffusion assay, Botrytis allii; type: cell-based; parameters: key: fuzzy (F)--a zone that had a fuzzy edge and clear center surrounding the disc; hazy (H)--a zone that was hazy throughout; slightly hazy (S)--a zone in which low levels of growth were discernible throughout the inhibition zone; very hazy (V)--a zone in which the differences between the background lawn and inhibition zone were barely discernible; details: appearance of inhibition zone
Method: as §3, §4, §5, §6

Rhizomucor miehei = experiment: disk diffusion assay, Rhizomucor miehei; type: cell-based; parameters: key: fuzzy (F)--a zone that had a fuzzy edge and clear center surrounding the disc; hazy (H)--a zone that was hazy throughout; slightly hazy (S)--a zone in which low levels of growth were discernible throughout the inhibition zone; very hazy (V)--a zone in which the differences between the background lawn and inhibition zone were barely discernible; details: appearance of inhibition zone
Method: as §3, §4, §5, §6

Ustilago zea = experiment: disk diffusion assay, Ustilago zea; type: cell-based; parameters: key: fuzzy (F)--a zone that had a fuzzy edge and clear center surrounding the disc; hazy (H)--a zone that was hazy throughout; slightly hazy (S)--a zone in which low levels of growth were discernible throughout the inhibition zone; very hazy (V)--a zone in which the differences between the background lawn and inhibition zone were barely discernible; details: appearance of inhibition zone
Method: as §3, §4, §5, §6

Verticillium serrae = experiment: disk diffusion assay, Verticillium serrae; type: cell-based; parameters: key: fuzzy (F)--a zone that had a fuzzy edge and clear center surrounding the disc; hazy (H)--a zone that was hazy throughout; slightly hazy (S)--a zone in which low levels of growth were discernible throughout the inhibition zone; very hazy (V)--a zone in which the differences between the background lawn and inhibition zone were barely discernible; details: appearance of inhibition zone
Method: as §3, §4, §5, §6

Cryptococcus neoformans [3] = experiment: agar dilution assay (MIC) against two strains of Cryptococcus neoformans; type: cell-based; details: yeast nitrogen base dextrose agar
Method: as §1, §2
The minimum inhibitory concentration (MIC) against the organisms employed on the standard assay were as follows: […]

Phoma sp. = experiment: disk diffusion assay, Phoma sp.; type: cell-based; parameters: key: fuzzy (F)--a zone that had a fuzzy edge and clear center surrounding the disc; hazy (H)--a zone that was hazy throughout; slightly hazy (S)--a zone in which low levels of growth were discernible throughout the inhibition zone; very hazy (V)--a zone in which the differences between the background lawn and inhibition zone were barely discernible; details: appearance of inhibition zone
Method: as §3, §4, §5, §6

Erwinia species = experiment: activity against bacteria (statement), Erwinia; type: cell-based

`C[C@@H]1[C@H](O)[C@@H](C)/C=C/C=C/C=C/C=C/C=C/C=C/C=C/[C@H](O[C@@H]2O[C@H](C)[C@@H](O)[C@H](N)[C@@H]2O)C[C@@H]2O[C@](O)(C[C@@H](O)C[C@@H](O)[C@H](O)CC[C@@H](O)C[C@@H](O)CC(=O)O[C@H]1C)C[C@H](O)[C@H]2C(=O)O` [Amphotericin B, amphotericin B, reference compound] showed an MIC50 (Cryptococcus neoformans [1]; 84 isolates) of 0.125 µg/mL (≈ 0.135 µM) and an MIC90 (Cryptococcus neoformans [1]; 84 isolates) of 0.25 µg/mL (≈ 0.271 µM).

With `COc1ccc(CC2NC(=O)C=CCC(C(C)C3OC3c3ccccc3)OC(=O)C(CC(C)C)OC(=O)C(C)CNC2=O)cc1Cl` (stereo not shown) [Compound I, 10-[(3-chloro 4methoxyphenyl)methyl]-6-methyl-3-(2-methylpropyl)-16-[1-(3-phenyloxiranyl)ethyl]-1,4-dioxa-8,11-diazacyclohexadec-13-ene-2,5,9,12-tetrone] the activity against bacteria (Staphylococcus species) was “active”, the Zone qualifier (Fusarium oxysporum) was “F” and the Zone qualifier (Ceratocystis ulmi) was “S”. For the same molecule, the solubility (solubility) was “soluble in organic solvents”, the Zone qualifier (Trichoderma lignorum) was “S” and the activity against bacteria (Serratia species) was “active”. The MIC (Cryptococcus neoformans [1]; read-out: G-MIC (geometric means of MIC)) was 0.03 µg/mL (≈ 0.0458 µM), the MIC50 (Cryptococcus neoformans [1]) was 0.031 µg/mL (≈ 0.0473 µM) and the MIC90 (Cryptococcus neoformans [1]) was 0.031 µg/mL (≈ 0.0473 µM). For the same molecule, the Zone qualifier (Scopulariopsis communes) was “H”, the Zone qualifier (Aspergillus niger) was “S” and the Zone qualifier (Aspergillus fumigatus) was “S”. For the same molecule, the “activity against certain yeasts” value [2] was “active”, the Zone qualifier (Cryptococcus albidus) was “S” and the Zone qualifier (Cryptococcus laurentii) was “H and S”. For the same molecule, the Zone qualifier (Cephalosporium sp.) was “V”, the Zone qualifier (Alternaria solani) was “S” and the Zone qualifier (Aspergillus flavus) was “S”. The Zone qualifier (Cercospora beticola) was “S”, the Zone qualifier (Cochliobolus miyabeanus) was “F” and the Zone qualifier (Trichoderma sp.) was “S”. The Zone qualifier (Penicillium sp.) was “S and F”, the Zone qualifier (Botrytis allii) was “S” and the Zone qualifier (Rhizomucor miehei) was “V”. For the same molecule, the Zone qualifier (Ustilago zea) was “S”, the Zone qualifier (Verticillium serrae) was “V” and the MIC (Cryptococcus neoformans [3]; strain MY1051, read-out: Minimum Inhibitory Concentration) was no more than 0.063 µg/mL. For the same molecule, the “Minimum Inhibitory Concentration” value (Cryptococcus neoformans [3]; strain MY1146) was no more than 0.063 µg/mL, the Zone qualifier (Phoma sp.) was “S” and the activity against bacteria (Erwinia species) was “active”.

With `C[C@@H]1[C@H](O)[C@@H](C)/C=C/C=C/CC/C=C/C=C/C=C/C=C/C(O[C@H]2O[C@H](C)[C@@H](O)[C@H](N)[C@@H]2O)CC2O[C@](O)(CC(O)C(O)CCC(O)CC(O)CC(O)CC(=O)O[C@H]1C)CC(O)C2C(=O)O` (stereo partly shown) [Nystatin, nystatin, reference compound] the “Minimum Inhibitory Concentration” value (Cryptococcus neoformans [3]; strain MY1051) was 1.0 µg/mL and the “Minimum Inhibitory Concentration” value (Cryptococcus neoformans [3]; strain MY1146) was 1.0 µg/mL.
